Experimental data published in patent US20190313614A1, “MRAP2 KNOCKOUTS” (EFFSTOCK, LLC, priority 2013, published 2019).

Experiments:
[1] = tested on: melanocortin receptor (Mc4r and Mc3r); test: Food intake following saline or MTII in Mrap2+/+ vs. Mrap2−/− mice; type: in vivo; settings: young (age 38-45 days) Mrap2−/− mice; 2 μg/g body weight, i.p.
Description: FIG. 5A depicts images of the appearance of male and female Mrap^+/+ and Mrap2^−/− mice. Left panel: External appearance on standard chow (age 175 days). Upper right: mesenteric fat in female Mrap^+/+ and Mrap2^−/− mice (age 175 days). Lower right: Brown adipose tissue (BAT) in female Mrap^+/+ and Mrap2^−/− mice (age 175 days). FIG. 5B depicts the level of serum leptin in Mrap2^+/+ and Mrap2^−/− mice. Left panel: Mrap2^+/+ vs. Mrap2^−/− ad libitum fed male (n=4 vs. 6) and female (n=8 vs. 4) mice (ages 302-349 days). Right panel: Mrap2^+/+ vs. Mrap2^−/− food-restricted, weight-matched male (n=4 vs. 6, weight=27.4±0.6 vs. 24.8±0.2 g), and female (n=4 vs. 6, weight=21.5±0.6 vs. 20.8±0.2 g) mice (ages 135-151 days). *p=0.005, **p<0.00001. FIG. 5C depicts the level of fasting serum insulin in Mrap2^+/+ and Mrap2^−/− male (n=4 vs. 6) and female (n=6 vs. 8) mice (ages 88-194 days). There was no significant difference between genotypes of either gender. FIG. 5D depicts the results of a glucose tolerance test (intraperitoneal) in Mrap2^+/+ and Mrap2^−/− male (n=4 vs. 6) and female (n=6 vs. 8) mice (ages 88-194 days). There was no significant difference between genotypes of either gender. FIG. 5E depicts levels of blood corticosterone in morning, evening, and following 30 minutes of restraint stress in Mrap2^+/+ and Mrap2^−/− male (n=4 vs. 3) and female (n=6 vs. 7) mice (ages 124-178 days). […]

Mc4r = target: T1, Mc4r (Mus musculus, UniProt P56450); test: Mc4r bioassay for Mrap2 effect: cAMP reporter (CRELuc) activity in transfected CHO cells; type: cell-based; settings: 0-10 nM αMSH, 5 h
T1 construct: expressed in transfected cells; host or cells: CHO cells (ATCC), transient transfection with pRC/CMV constructs, pCRE-Luc and pRL-TK
T1 sequence (P56450 whole entry): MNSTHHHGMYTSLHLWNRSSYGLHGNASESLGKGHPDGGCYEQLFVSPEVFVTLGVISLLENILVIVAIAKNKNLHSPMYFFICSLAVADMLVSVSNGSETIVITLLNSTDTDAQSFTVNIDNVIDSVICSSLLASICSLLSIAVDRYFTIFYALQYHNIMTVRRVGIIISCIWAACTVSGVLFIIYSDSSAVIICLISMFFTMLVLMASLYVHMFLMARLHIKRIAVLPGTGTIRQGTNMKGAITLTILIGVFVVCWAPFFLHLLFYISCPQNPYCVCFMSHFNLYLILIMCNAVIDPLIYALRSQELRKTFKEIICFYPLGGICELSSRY
Description: FIGS. 3A-3C depict the interaction between Mrap2 and Mc4r. […] Top right, Cre DNA analysis by PCR. […] Molecular weight marker (M) on right (bp). Top left, Mrap2 DNA analysis in Sim1^CreBAC::Mrap2^f/f and Mrap2^f/f mice by PCR. Both genotypes contain floxed, intact Mrap2 DNA in CX, HT, and BS (314 bp in upper electropherogram, and 1013 bp in lower electropherogram, molecular weight markers on left). Only Sim1^CreBAC::Mrap2^f/f mice contain Mrap2^Del (400 bp, lower electropherogram), and only in HT and BS, but not in CX, consistent with fluorescent reporter data. No PCR products are present without added DNA (H2O). Bottom, Mrap2 mRNA expression in Sim1^CreBAC::Mrap2^f/f and Mrap2^f/f mice by RT-PCR. Both genotypes express floxed, intact Mrap2 mRNA in CX, HT, and BS (247 bp). Only Sim1^CreBAC::Mrap2^f/f mice express Mrap2^Del mRNA (147 bp), and only in HT. Global Mrap2^Del/Del mice express Mrap2^Del mRNA in all 3 sites. FIG. 3B depicts graphs of body weights of Mrap2^+/+ (male n=6, female n=11), Mrap2^−/− (male n=11, female n=7), Mrap2^f/f (male n=8, female n=12) and conditional Sim1^CreBAC::Mrap2^f/f (male n=8, female n=7) mice, all age 133 days. *p=0.04, **p=0.007, ***p=0.0002, ****p<0.0001. FIG. 3C depicts graphs of the effect of Mrap2 on Mc4r signaling. Left panel: Level of cAMP reporter activity (CRELuc) in CHO cells alone, or co-transfected with Mc4r, with or without Mrap2 or the Mrap2 knockout construct, Mrap2delE3, 5 h following exposure to 0-10 nM αMSH (n=3/group). Right panel: cAMP activity of these same constructs, expressed as percent induction following 0-10 nM αMSH, relative to 0 nM αMSH. *p<0.0001, Mc4r+Mrap2 vs. Mc4r at same [αMSH], by ANOVA. For most data points, error bars are obscured by symbols.
The coding sequences of mouse Mrap2 and Mc4r were isolated by PCR of brain cDNA (Mrap2) or genomic DNA (Mc4r) (Table S4), subcloned into TOPO-pCRII™ (Invitrogen, Carlsbad, Calif.), sequence-verified, and ligated into pRC/CMV (Invitrogen, Carlsbad, Calif.). Mrap2delE3, identical to the product of Mrap2^−/− mice, was also created and ligated into pRC/CMV. […]

Mc3r = target: T2, Mc3r (Mus musculus, UniProt P33033); test: Effect of Mrap2 on Mc3r signaling: cAMP reporter (CRELuc) activity in transfected CHO cells; type: cell-based; settings: Mc3r+Mrap2 vs. Mc3r, at the two highest αMSH doses (0-10 nM, 5 h)
T2 construct: expressed in transfected cells; host or cells: CHO cells
T2 sequence (P33033 whole entry): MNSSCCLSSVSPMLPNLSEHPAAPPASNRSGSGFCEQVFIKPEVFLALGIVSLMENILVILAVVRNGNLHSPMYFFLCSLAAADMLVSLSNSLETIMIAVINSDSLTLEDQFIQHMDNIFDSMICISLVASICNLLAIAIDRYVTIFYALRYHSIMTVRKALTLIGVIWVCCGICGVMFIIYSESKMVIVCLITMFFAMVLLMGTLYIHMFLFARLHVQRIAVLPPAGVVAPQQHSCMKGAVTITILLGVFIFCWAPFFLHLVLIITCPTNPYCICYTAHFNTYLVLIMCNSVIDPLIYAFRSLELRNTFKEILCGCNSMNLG
Description: FIG. 6A depicts graphs of food intake (left panel) and body weight (right panel) in female Mrap2^flox/flox vs. Sim1^Cre: Mrap2^flox/flox mice. Sim1^Cre::Mrap2^flox/flox mice were either ad libitum-fed or pair-fed starting at age 70 days (upward arrow) to ad libitum-fed Mrap2^flox/flox mice. […] FIG. 6B depicts graphs of body weights in mice with combined knockout of Mrap2 and Mc4r. Top panels: Body weights in mixed Mrap^+/−::Mc4r^+/− genotypes (male Mrap^+/−::Mc4r^+/−, n=10; Mrap^+/+::Mc4r^+/−, n=10; Mrap^+/−::Mc4r^+/+, n=8; Mrap^+/+::Mc4r^+/+, n=9; female Mrap^+/−: Mc4r^−/−, n=9; Mrap^+/+::Mc4r^−/−, n=12; Mrap^+/−::Mc4r^+/+, n=8; Mrap^+/+::Mc4r^+/+, n=8). Bottom panels: Body weights in mixed Mrap^−/−::Mc4r^−/− genotypes (male Mrap^−/−:Mc4r^−/−, n=9; Mrap^+/+::Mc4r^−/−, n=8; Mrap^−/−: Mc4r^+/+, n=8; Mrap^+/+::Mc4r^+/+, n=9; female Mrap^−/−::Mc4r^−/−, n=7; Mrap^+/+:::Mc4r^−/−, n=8; Mrap^−/−::Mc4r^+/+, n=9; Mrap^+/+:::Mc4r^+/+, n=8). *p<0.05, **p<0.001 by ANOVA. FIG. 6C depicts the results of co-immunoprecipitation assay between Mrap2 and Mc4r. Transfection into CHO cells of Myc-tagged Mrap2 and GFP-tagged Mc4r was followed by anti-Myc immunoprecipitation and anti-GFP immunoblotting. […] Right panel: cAMP activity of these same constructs, expressed as percent induction following 0-10 nM αMSH, relative to 0 nM αMSH. *p<0.0001, Mc3r+Mrap2 vs. Mc3r at same [αMSH], by ANOVA. […]

increase above basal PKA activity (Mc4r; CHO cells co-transfected with Mc4r and Mrap2, relative to 0 nM αMSH) [fold] | increase above basal PKA activity (Mc4r; CHO cells with Mc4r alone) [fold] | increase above basal PKA activity (Mc4r; CHO cells with Mc4r plus the Mrap2 null construct Mrap2delE3) [fold] | signaling through Mc3r (cAMP reporter activity) (Mc3r) | Substance | anorectic response (food intake) [1]
– | – | – | – | acetyl-(Nle^4, Asp^5, D-Phe^7, Lys^10)-cyclo-[…]-MSH (4-10) amide acetate salt [MTII] | intact anorectic response
5 | < 2 | < 2 | increased signaling | α-melanocyte stimulating hormone [αMSH] | –
